Measured values: US20220143042A1, “FUSED GLYCOSIDASE INHIBITORS” (Asceneuron SA, priority 2019, published 2022)

molecular target: T1, His-Tagged hOGA (Homo sapiens, UniProt O60502); test: Human O-GlcNAcase enzyme inhibition assay; format: biochemical; conditions: OGA enzyme inhibition assay; FL-GlcNAc substrate, 60 min at room temperature, pH 6.5
T1 sequence (O60502 1-916): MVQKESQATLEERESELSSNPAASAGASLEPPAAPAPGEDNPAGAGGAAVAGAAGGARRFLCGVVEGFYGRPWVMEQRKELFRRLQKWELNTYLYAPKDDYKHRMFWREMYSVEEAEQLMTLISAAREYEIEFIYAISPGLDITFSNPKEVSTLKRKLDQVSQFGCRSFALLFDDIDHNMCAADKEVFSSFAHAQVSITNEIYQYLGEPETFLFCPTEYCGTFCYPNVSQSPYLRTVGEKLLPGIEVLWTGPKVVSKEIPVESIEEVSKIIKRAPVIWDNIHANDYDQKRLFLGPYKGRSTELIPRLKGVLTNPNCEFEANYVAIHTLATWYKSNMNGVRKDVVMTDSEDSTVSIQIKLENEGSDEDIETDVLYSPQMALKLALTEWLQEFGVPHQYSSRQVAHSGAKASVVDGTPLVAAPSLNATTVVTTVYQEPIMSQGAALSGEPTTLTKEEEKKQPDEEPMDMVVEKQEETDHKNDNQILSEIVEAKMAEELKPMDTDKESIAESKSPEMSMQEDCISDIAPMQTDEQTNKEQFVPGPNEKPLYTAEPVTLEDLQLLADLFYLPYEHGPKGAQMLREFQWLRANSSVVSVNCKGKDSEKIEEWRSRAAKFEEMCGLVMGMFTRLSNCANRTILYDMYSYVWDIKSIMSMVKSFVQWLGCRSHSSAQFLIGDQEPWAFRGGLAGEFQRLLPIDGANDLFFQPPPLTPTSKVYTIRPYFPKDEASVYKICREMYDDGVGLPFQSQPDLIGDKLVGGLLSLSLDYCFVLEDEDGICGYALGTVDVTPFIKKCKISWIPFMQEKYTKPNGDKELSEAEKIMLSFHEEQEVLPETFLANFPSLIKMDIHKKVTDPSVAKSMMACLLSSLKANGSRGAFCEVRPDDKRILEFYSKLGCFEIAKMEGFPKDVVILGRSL
Protocol: EXAMPLE B01: HUMAN O-GLCNACASE ENZYME INHIBITION ASSAY
5 μl of the appropriate concentration of a solution of inhibitor in Mcllvaine's Buffer (pH 6.5) in 2% DMSO (for a dose response curve calculation) is added into each well of a 384-well plate (Greiner, 781900). Then, 20 nM of His-Tagged hOGA and 10 μM of FL-GlcNAc (Fluorescein mono-beta-D-(2-deoxy-2-N-acetyl) glucopyranoside; Marker Gene Technologies Inc, M1485) were added to the 384-well plate for a final volume of 20 μl. After incubation for 60 min at room temperature, the reaction was terminated by the addition of 10 μL of stop buffer (200 mM glycine, pH 10.75). The level of fluorescence (λexc 485 nm; (λemm 520 nm) was read on a PHERAstar machine. The amount of fluorescence measured was plotted against the concentration of inhibitor to produce a sigmoidal dose response curve to calculate an IC50. All individual data was corrected by subtraction of the background (Thiamet 3 uM=100% inhibition) whilst 0.5% DMSO was considered as the control value (no inhibition).

Row | IC50 | SMILES
1 | 0.2 to 1 µM | CC(=O)Nc1nc2c(s1)CN(C(C)c1ccc3scnc3c1)CCC2 (racemic) [Example 152]
2 | < 0.05 µM | CC(=O)Nc1ncc(CN2CCc3nncn3CC2)s1 (racemic) [Example 154]
3 | 0.05 to 0.2 µM | CC(c1ccc2scnc2c1)N1CCc2nc[nH]c2CC1 (racemic) [Example 161]
4 | 0.2 to 1 µM | CC(c1ccc2scnc2c1)N1CCCc2nn(C)cc2C1 (racemic) [Example 165, 5-(1-(2-METHYL-2,6,7,8-TETRAHYDROPYRAZOLO[4,3-C]AZEPIN-5(4H)-YL)ETHYL)BENZO[D]THIAZOLE]
5 | < 0.05 µM | CC(=O)Nc1nc2c(s1)CCN(C(C)c1ccc3scnc3c1)CC2 (single isomer, unassigned) [Example 162]
6 | 0.2 to 1 µM | CC(=O)Nc1nc2c(s1)CCN(C(C)c1ccc3scnc3c1)CC2 (single isomer, unassigned) [Example 163]

Continued, compound first:

Row | SMILES | IC50
7 | CC(c1ccc2scnc2c1)N1CCc2cn(C)nc2CC1 (racemic) [Example 1, 5-(1-(2-METHYL-4,5,7,8-TETRAHYDROPYRAZOLO[3,4-D]AZEPIN-6(2H)-YL)ETHYL)BENZO[D]THIAZOLE] | < 0.05 µM
8 | Cc1nc2c(s1)CCN(C(C)c1ccc3scnc3c1)CC2 (racemic) [Example 14, 6-(1-(BENZO[D]THIAZOL-5-YL)ETHYL)-2-METHYL-5,6,7,8-TETRAHYDRO-4H-THIAZOLO[4,5-D]AZEPINE] | < 0.05 µM
9 | CC(=O)Nc1nc2c(s1)CCN(C(C)c1ccc3scnc3c1)CC2 (racemic) [Example 16] | < 0.05 µM
10 | Cc1nc2c(s1)CCN(C(C)c1ccc3c(c1)OCC3)CC2 (racemic) [Example 20, 6-(1-(2,3-DIHYDROBENZOFURAN-6-YL)ETHYL)-2-METHYL-5,6,7,8-TETRAHYDRO-4H-THIAZOLO[4,5-D]AZEPINE] | < 0.05 µM
11 | CC(=O)Nc1ncc(CN2CCc3cn(C)nc3CC2)s1 (racemic) [Example 23, N-(5-((2-METHYL-4,5,7,8-TETRAHYDROPYRAZOLO[3,4-D]AZEPIN-6(2H)-YL)METHYL)THIAZOL-2-YL)ACETAMIDE] | < 0.05 µM
12 | CC(=O)Nc1ncc(CN2CCc3nc(C)sc3CC2)s1 (racemic) [Example 26, N-(5-((2-METHYL-4,5,7,8-TETRAHYDRO-6H-THIAZOLO[4,5-D]AZEPIN-6-YL)METHYL)THIAZOL-2-YL)ACETAMIDE] | < 0.05 µM
13 | CC(c1ccc2scnc2c1)N1CCc2nn(C)c(-c3ccccc3)c2CC1 (racemic) [Example 46, 5-(1-(2-METHYL-3-PHENYL-4,5,7,8-TETRAHYDROPYRAZOLO[3,4-D]AZEPIN-6(2H)-YL)ETHYL)BENZO[D]THIAZOLE] | < 0.05 µM
14 | CC(c1ccc2scnc2c1)N1CCc2c(-c3ccccc3)nn(C)c2CC1 (racemic) [Example 47, 5-(1-(1-METHYL-3-PHENYL-4,5,7,8-TETRAHYDROPYRAZOLO[3,4-D]AZEPIN-6(1H)-YL)ETHYL)BENZO[D]THIAZOLE] | < 0.05 µM
15 | CC(c1ccc2scnc2c1)N1CCc2c([Si](C)(C)C)nn(C)c2CC1 (racemic) [Example 48, 5-(1-(1-METHYL-3-(TRIMETHYLSILYL)-4,5,7,8-TETRAHYDROPYRAZOLO[3,4-D]AZEPIN-6(1H)-YL)ETHYL)BENZO[D]THIAZOLE] | < 0.05 µM
16 | CC(=O)Nc1ncc(CN2CCc3nc(N)sc3CC2)s1 (racemic) [Example 151, N-(5-((2-AMINO-4,5,7,8-TETRAHYDRO-6H-THIAZOLO[4,5-D]AZEPIN-6-YL)METHYL)THIAZOL-2-YL)ACETAMIDE] | 0.05 to 0.2 µM
